{
  "source": "ChEMBL document CHEMBL4190285",
  "about": "“Borapetoside E, a Clerodane Diterpenoid Extracted from Tinospora crispa, Improves Hyperglycemia and Hyperlipidemia in High-Fat-Diet-Induced Type 2 Diabetes Mice” (J Nat Prod, 2017)",
  "type_in_all_cases": "functional, organism-based",
  "key": {"[1]": {"test_system": "Mus musculus", "assay": "Increase in oxygen consumption in HFFD-induced obese C57BL/6J mouse at 40 mg/kg, ip administered twice daily for 2.5 days measured up to 12.6 hrs under dark condition"}, "[2]": {"test_system": "Mus musculus", "assay": "Down regulation of n-SREBP1 expression in HFD-induced obese C57BL/6J mouse liver at 20 to 40 mg/kg, ip administered twice daily for 2.5 days measured at 2 hrs post last dose by Western blot analysis"}, "[3]": {"test_system": "Mus musculus", "assay": "Antihyperlipidemic activity in high fat diet-induced obese C57BL/6J mouse assessed as reduction in free fatty acid level in epididymis adipose tissue at 20 to 40 mg/kg, ip administered twice daily for 2.5 days measured at 2 hrs post last dose"}, "[4]": {"test_system": "Mus musculus", "assay": "Antihyperlipidemic activity in high fat diet-induced obese C57BL/6J mouse assessed as reduction in liver triglyceride levels at 20 to 40 mg/kg, ip administered twice daily for 2.5 days measured at 2 hrs post last dose"}, "[5]": {"test_system": "Mus musculus", "assay": "Effect on respiratory exchange ratios in HFD-induced obese C57BL/6J mouse at 40 mg/kg, ip administered twice daily for 2.5 days incubated for 12.6 hrs under dark condition followed by redosing on day 3 for 2 times"}},
  "note": "Active and inactive are the calls of the source. No cut-off for these calls is given here.",
  "data": [
    {"smiles": "COC(=O)C1=CCC[C@H]2[C@](C)(C[C@@H](O[C@@H]3O[C@H](CO)[C@@H](O)[C@H](O)[C@H]3O)c3ccoc3)[C@H]3C[C@H](OC3=O)[C@@]12C", "values": [
      {"measurement": "Activity", "setting": "[1]", "value": "Active"},
      {"measurement": "Activity", "setting": "[2]", "value": "Active"},
      {"measurement": "Activity", "setting": "[3]", "value": "Active"},
      {"measurement": "Activity", "setting": "[4]", "value": "Active"},
      {"measurement": "Activity", "setting": "[5]", "value": "inactive"}
    ]}
  ]
}
